From patent US10214546B2, “Btk inhibitors” (MERCK SHARP & DOHME CORP., priority 2014, dated 2019)
pIC50: −log10 of the molar value. Read-outs that look alike come from different tables or passages of the source. One block for each compound: values may come before it.

What was measured:
[1] = target: BTK enzyme (recombinant full-length BTK, hBTK) (Homo sapiens (Human), UniProt Q06187); experiment: BTK enzymatic activity LANCE TR-FRET assay; type: biochemical; conditions: 50 pM hBTK, 25 μM ATP, 2 μM biotin-A5-peptide; compound range 1 μM to 0.017 nM; read-out: BTK binding IC50
Method: Btk Enzyme Activity Assay Methods
BTK enzymatic activity was determined with the LANCE (Lanthanide Chelate Excite) TR-FRET (Time-resolved fluorescence resonance energy transfer) assay. […] Phosphorylation reactions were allowed to proceed for 120 minutes. […] After 60 minutes incubation with detection reagents, reaction plates were read on a PerkinElmer EnVision plate reader using standard TR-FRET protocol. […] IC50 values were determined by 4 parameter robust fit of TR-FRET ratio values vs. (Log10) compound concentrations.

[2] = system: adenosine uptake into HeLa cells; experiment: [3H]Adenosine uptake assay in HeLa cells; type: cell-based; conditions: [3H]adenosine accumulation in HeLa cells, compound range 10 μM to 0.032 nM, read-out: ADU inhibition IC50
Method: Compounds are also screened in an adenosine uptake functional cellular assay using the protocol described below:
[^3H]Adenosine Uptake Assay Methods
Adenosine uptake activity was determined by monitoring the accumulation of tritiated adenosine into HeLa cells (ATCC catalog # CCL-2) using a PMT-based radiometric detection instrument. In this assay, the potency (IC50) of each compound was determined from a ten point (1:3 serial dilution; final compound concentration range in assay from 10 µM to […]) titration curve using the following outlined procedure. To each well of a 96-well CytoStar-T scintillating microplate (Perkin Elmer Catalog # RPNQ0163), 25 000 HeLa cells in 100 µL of growth medium comprising: Minimum Essential Media (Life Technologies Catalog #11095-080)+10% (v/v) foetal bovine serum (FBS; Sigma Aldrich Catalog # F2442) was added. These cells were incubated overnight at 37° C. in a humidified atmosphere with 5% (v/v) CO2. After this time the growth medium was removed and replaced with 40 μL assay medium comprising: Hanks balanced salts solution (HBSS; Thermo Fisher Catalog # SH30268.01)+5% (v/v) FBS. Compound stock solutions in DMSO were diluted in assay medium to 2.5× final compound concentration maintaining a constant DMSO concentration of 0.25% (v/v). 40 μL of compound in assay medium was dispensed into individual wells of the Cytostar-T plates and the plates were incubated for 30 minutes under ambient laboratory conditions. Following this incubation, 20 μL of 500 nM [^3H] adenosine (American Radiolabeled Chemicals Inc. […] The amount of radiolabel accumulation was then determined using a Perkin Elmer Topcount NXT microplate reader. In brief, HeLa cells adhere to the bottom of the Cytostar-T plate, uptake of [^3H]adenosine into these cells brings the radiolabel into sufficient proximity to excite the scintillant in the base of the plates. These events are captured by single PMT, time-resolved coincidence counting. IC50 values were determined by 4 parameter robust fit of counts per second values vs. (Log10) compound concentrations.

BTK enzyme (recombinant full-length BTK, hBTK), sequence (Q06187 whole entry): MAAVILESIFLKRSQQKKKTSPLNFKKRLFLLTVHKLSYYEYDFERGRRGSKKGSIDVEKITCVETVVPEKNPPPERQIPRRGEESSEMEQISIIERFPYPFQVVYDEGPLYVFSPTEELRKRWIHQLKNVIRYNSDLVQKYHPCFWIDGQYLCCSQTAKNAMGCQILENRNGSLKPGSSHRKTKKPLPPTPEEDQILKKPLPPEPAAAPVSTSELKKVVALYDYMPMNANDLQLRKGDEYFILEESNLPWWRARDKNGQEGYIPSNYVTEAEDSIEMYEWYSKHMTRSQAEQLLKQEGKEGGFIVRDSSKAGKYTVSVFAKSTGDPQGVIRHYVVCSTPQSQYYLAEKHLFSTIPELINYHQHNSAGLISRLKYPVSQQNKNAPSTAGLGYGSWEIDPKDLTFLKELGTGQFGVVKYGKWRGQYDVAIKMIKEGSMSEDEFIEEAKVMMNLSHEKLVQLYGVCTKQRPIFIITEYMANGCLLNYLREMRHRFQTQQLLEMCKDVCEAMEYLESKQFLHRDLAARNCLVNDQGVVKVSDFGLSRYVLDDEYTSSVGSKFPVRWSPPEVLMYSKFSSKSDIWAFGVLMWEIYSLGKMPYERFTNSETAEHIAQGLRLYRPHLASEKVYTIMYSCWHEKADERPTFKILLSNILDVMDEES

SMILES: C[C@](O)(c1cccc(C(F)(F)F)c1)c1ccc(-c2nc([C@@H]3CC[C@H]4CCC(=O)N4C3)n3ccnc(N)c23)c(CO)c1 [Example 20, (6R,8aS)-6-(8-amino-1-(4-((R)-1-hydroxy-1-(3-(trifluoromethyl)phenyl)ethyl)-2-(hydroxymethyl)phenyl)imidazo[1,5-a]pyrazin-3-yl)hexahydroindolizin-3(2H)-one]
pIC50 [1]: 6.64
pIC50 ([2]; Homo sapiens, HeLa): 5.59

SMILES: Nc1nccn2c([C@@H]3CC[C@H]4CCC(=O)N4C3)nc(-c3ccc([C@@](O)(c4ccccc4)C(F)(F)F)cc3)c12 [Example 26, (6R,8aS)-6-(8-amino-1-{4-[(1S)-2,2,2-trifluoro-1-hydroxy-1-phenylethyl]phenyl}imidazo[1,5-a]pyrazin-3-yl)hexahydroindolizin-3(2H)-one]
pIC50 [1]: 6.81
pIC50 ([2]; Homo sapiens, HeLa): 5.58

SMILES: Nc1nccn2c([C@@H]3CC[C@H]4CCC(=O)N4C3)nc(-c3ccc(C(O)(c4cccc(C(F)(F)F)c4)C(F)(F)F)cc3)c12 (stereo partly drawn) [Example 27, (6R,8aS)-6-[8-amino-1-(4-{2,2,2-trifluoro-1-hydroxy-1-[3-(trifluoromethyl)phenyl]ethyl}phenyl)imidazo [1,5-a]pyrazin-3-yl]hexahydroindolizin-3(2H)-one]
pIC50 [1]: 8.01
pIC50 ([2]; Homo sapiens, HeLa): 5.91

SMILES: CC(O)(c1ccc(-c2nc([C@@H]3CC[C@H]4CCC(=O)N4C3)n3ccnc(N)c23)cc1)c1ccccc1C(F)(F)F (stereo partly drawn) [Example 31, (6R,8aS)-6-[8-amino-1-(4-{1-hydroxy-1-[2-(trifluoromethyl)phenyl]ethyl}phenyl)imidazo [1,5-a]pyrazin-3-yl]hexahydroindolizin-3(2H)-one]
pIC50 [1]: 7.11
pIC50 ([2]; Homo sapiens, HeLa): 5.32

SMILES: Cn1nc(C(C)(O)c2ccc(-c3nc([C@@H]4CC[C@H]5CCC(=O)N5C4)n4ccnc(N)c34)cc2)cc1C(F)(F)F (stereo partly drawn) [Example 35, (6R,8aS)-6-[8-amino-1-(4-{1-hydroxy-1-[1-methyl-5-(trifluoromethyl)-1H-pyrazol-3-yl]ethyl}phenyl)imidazo [1,5-a]pyrazin-3-yl]hexahydroindolizin-3(2H)-one]
pIC50 [1]: 6.66
pIC50 ([2]; Homo sapiens, HeLa): 5.65

SMILES: C[C@](O)(c1ccc(-c2nc([C@@H]3CC[C@H]4CCC(=O)N4C3)n3ccnc(N)c23)cc1)c1cc(C(F)(F)F)ccn1 [Example 36]
pIC50 [1]: 6.00
pIC50 ([2]; Homo sapiens, HeLa): 6.15

SMILES: C[C@@](O)(c1ccc(-c2nc([C@@H]3CC[C@H]4CCC(=O)N4C3)n3ccnc(N)c23)cc1)c1cc(C(F)(F)F)ccn1 [Example 37, (6R,8aS)-6-[8-amino-1-(4-{(1R)-1-hydroxy-1-[4-(trifluoromethyl)pyridin-2-yl]ethyl}phenyl)imidazo[1,5-a]pyrazin-3-yl]hexahydroindolizin-3(2H)-one]
pIC50 [1]: 6.59
pIC50 ([2]; Homo sapiens, HeLa): 5.46

SMILES: C[C@](O)(c1ccc(-c2nc([C@@H]3CC[C@H]4CCC(=O)N4C3)n3ccnc(N)c23)cc1)c1cccc(Cl)c1 [Example 41, (6R,8aS)-6-(8-amino-1-{4-[(1S)-1-(3-chlorophenyl)-1-hydroxyethyl]phenyl}imidazo[1,5-a]pyrazin-3-yl)hexahydroindolizin-3(2H)-one]
pIC50 [1]: 6.94
pIC50 ([2]; Homo sapiens, HeLa): 6.23

SMILES: Cc1cc(-c2nc([C@@H]3CC[C@H]4CCC(=O)N4C3)n3ccnc(N)c23)ccc1C(C)(O)c1cccc(C(F)(F)F)c1 (stereo partly drawn) [Example 42, (6R,8aS)-6-[8-amino-1-(4-{1-hydroxy-1-[3-(trifluoromethyl)phenyl]ethyl}-3-methylphenyl)imidazo [1,5-a]pyrazin-3-yl]hexahydroindolizin-3(2H)-one]
pIC50 [1]: 6.00
pIC50 [2]: 5.49

SMILES: Cc1cc(-c2nc([C@@H]3CC[C@H]4CCC(=O)N4C3)n3ccnc(N)c23)ccc1C(C)(O)c1cccc(C(F)(F)F)c1 (stereo partly drawn) [Example 43, (6R,8aS)-6-[8-amino-1-(4-{1-hydroxy-1-[3-(trifluoromethyl)phenyl]ethyl}-3-methylphenyl)imidazo [1,5-a]pyrazin-3-yl]hexahydroindolizin-3(2H)-one]
pIC50 [1]: 6.00
pIC50 [2]: 6.27

Results, then the compound that gave them:

pIC50 [1]: 8.24
pIC50 ([2]; Homo sapiens, HeLa): 5.13
SMILES: C[C@@](O)(c1cccc(C(F)(F)F)c1)c1ccc(-c2nc([C@@H]3CC[C@H]4CCC(=O)N4C3)n3ccnc(N)c23)c(CO)c1 [Example 21, (6R,8aS)-6-(8-amino-1-(4-((S)-1-hydroxy-1-(3-(trifluoromethyl)phenyl)ethyl)-2-(hydroxymethyl)phenyl)imidazo[1,5-a]pyrazin-3-yl)hexahydroindolizin-3(2H)-one]

pIC50 [1]: 8.77
pIC50 ([2]; Homo sapiens, HeLa): 5.42
SMILES: CCOc1cc(C(C)(O)c2cccc(C(F)(F)F)c2)cc(F)c1-c1nc([C@@H]2CC[C@H]3CCC(=O)N3C2)n2ccnc(N)c12 (stereo partly drawn) [Example 22, (6R,8aS)-6-(8-amino-1-(2-ethoxy-6-fluoro-4-(1-hydroxy-1-(3-(trifluoromethyl)phenyl)ethyl)phenyl)imidazo[1,5-a]pyrazin-3-yl)hexahydroindolizin-3(2H)-one]

pIC50 [1]: 8.28
pIC50 ([2]; Homo sapiens, HeLa): 5.60
SMILES: CC(O)(c1ccccc1)c1ccc(-c2nc([C@@H]3CC[C@H]4CCC(=O)N4C3)n3ccnc(N)c23)c(F)c1 (some centres unmarked) [Example 24]

pIC50 [1]: 8.74
pIC50 ([2]; Homo sapiens, HeLa): 5.42
SMILES: Nc1nccn2c([C@@H]3CC[C@H]4CCC(=O)N4C3)nc(-c3ccc([C@](O)(c4ccccc4)C(F)(F)F)cc3)c12 [Example 25, (6R,8aS)-6-(8-amino-1-{4-[(1R)-2,2,2-trifluoro-1-hydroxy-1-phenylethyl]phenyl}imidazo[1,5-a]pyrazin-3-yl)hexahydroindolizin-3(2H)-one]

pIC50 [1]: 8.16
pIC50 ([2]; Homo sapiens, HeLa): 5.70
SMILES: Nc1nccn2c([C@@H]3CC[C@H]4CCC(=O)N4C3)nc(-c3ccc(C(O)(c4cccc(F)c4)C(F)(F)F)cc3)c12 (stereo partly drawn) [Example 29, (6R,8aS)-6-(8-amino-1-{4-[2,2,2-trifluoro-1-(3-fluorophenyl)-1-hydroxyethyl]phenyl}imidazo[1,5-a]pyrazin-3-yl)hexahydroindolizin-3(2H)-one]

pIC50 [1]: 8.55
pIC50 ([2]; Homo sapiens, HeLa): 5.88
SMILES: Nc1nccn2c([C@@H]3CC[C@H]4CCC(=O)N4C3)nc(-c3ccc(C(O)(c4ccccc4)C(F)(F)F)cc3F)c12 (stereo partly drawn) [Example 30, (6R,8aS)-6-{8-amino-1-[2-fluoro-4-(2,2,2-trifluoro-1-hydroxy-1-phenylethyl)phenyl)imidazo[1,5-a]pyrazin-3-yl}hexahydroindolizin-3(2H)-one]

pIC50 [1]: 10.15
pIC50 ([2]; Homo sapiens, HeLa): 5.73
SMILES: C[C@@](O)(c1ccc(-c2nc([C@@H]3CC[C@H]4CCC(=O)N4C3)n3ccnc(N)c23)cc1)c1cccc(C2CC2)c1 [Example 38, (6R,8aS)-6-(8-amino-1-{4-[(1R)-1-(3-cyclopropylphenyl)-1-hydroxyethyl]phenyl}imidazo[1,5-a]pyrazin-3-yl)hexahydroindolizin-3(2H)-one]

pIC50 [1]: 8.02
pIC50 ([2]; Homo sapiens, HeLa): 6.22
SMILES: CC(C)(C)c1cccc([C@@](C)(O)c2ccc(-c3nc([C@@H]4CC[C@H]5CCC(=O)N5C4)n4ccnc(N)c34)cc2)c1 [Example 39, (6R,8aS)-6-(8-amino-1-{4-[(1S)-1-(3-tert-butylphenyl)-1-hydroxyethyl]phenyl}imidazo[1,5-a]pyrazin-3-yl)hexahydroindolizin-3(2H)-one]

pIC50 [1]: 9.57
pIC50 ([2]; Homo sapiens, HeLa): 5.75
SMILES: CC(C)(C)c1cccc([C@](C)(O)c2ccc(-c3nc([C@@H]4CC[C@H]5CCC(=O)N5C4)n4ccnc(N)c34)cc2)c1 [Example 40, (6R,8aS)-6-(8-amino-1-{4-[(1R)-1-(3-tert-bulylphenyl)-1-hydroxyethyl]phenyl}imidazo[1,5-a]pyrazin-3-yl)hexahydroindolizin-3(2H)-one]
